Assay results taken from patent publication US20030199671A1, “Binding molecules for Fc-region polypeptides” (priority 2001, published 2003).
Values joined by “and” are separate entries in the source; they are usually repeats but may differ in a detail not shown here. Identical values can stand only once. Like-named read-outs stand apart in the source and are kept apart here.

Columns and labels:
IgG4 = IgG4 (Homo sapiens, UniProt P01861); type: binding; design: all human subtypes derived from myeloma patients; purchased Calbiochem 400126; host or cells: myeloma patients; details: Table 9; immobilized peptide, 5.0 mg/ml resin load
Summary of the method: (§1)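 Read-out is A280 of unbound IgG (1.4 mg/ml extinction coefficient), with percent bound derived against non-filtered or negative controls. Targets were incubated with immobilized peptides in PBST or TBST for 1-1.5 h at room temperature. Hydrolyzed Sepharose and immobilized Protein A serve as negative and positive controls.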

IgG3 = IgG3 (Homo sapiens, UniProt P01860); type: binding; design: all human subtypes derived from myeloma patients; purchased Calbiochem 400124; host or cells: myeloma patients; details: Table 9; immobilized peptide, 5.0 mg/ml resin load
Summary of the method: (§2)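 Static binding, peptide resin + IgG, 1-1.5 h RT with shaking, PBST pH 7.2 or TBST pH 7.5. Flow-through read at A280 vs buffer blank; % bound = control minus unbound. Elution at pH 8.5 bicarbonate and/or pH 4.0 citrate, 30-60 min.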

human IgG1 = biological target: T1, human IgG1 (Homo sapiens, UniProt P01857); type: binding; details: Table 9; immobilized peptide, 5.0 mg/ml resin load
T1 construct: all human subtypes derived from myeloma patients; purchased Calbiochem 400120; host or cells: myeloma patients
Summary of the method: as §2

human IgG2 = biological target: T2, human IgG2 (Homo sapiens, UniProt P01859); type: binding; details: Table 9; immobilized peptide, 5.0 mg/ml resin load
T2 construct: all human subtypes derived from myeloma patients; purchased Calbiochem 400122; host or cells: myeloma patients
Summary of the method: as §1

mouse IgG = type: binding; details: Table 11; unfractionated IgG
Summary of the method: as §1

goat IgG = type: binding; details: Table 11; unfractionated IgG
Summary of the method: as §1

bovine IgG = type: binding; details: Table 11; unfractionated IgG
Summary of the method: as §1

human IgG = type: binding; details: Table 11; unfractionated IgG
Summary of the method: as §1

human plasma IgG3 = biological target: T3, human plasma IgG3 (Homo sapiens, UniProt P01860); experiment: Fluorescence anisotropy binding, Oregon Green labeled peptide
T3 construct: the individual human plasma IgG isoforms: IgG1, IgG2, IgG3, or IgG4; purchased Calbiochem; host or cells: human plasma

human plasma IgG4 = biological target: T4, human plasma IgG4 (Homo sapiens, UniProt P01861); experiment: as above
T4 construct: the individual human plasma IgG isoforms: IgG1, IgG2, IgG3, or IgG4; purchased Calbiochem; host or cells: human plasma
Summary of the method: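 Oregon Green-labeled peptides binding to human plasma IgG isoforms measured by fluorescence anisotropy. Buffers with 0.01% Tween 20: 10 mM sodium citrate pH 4.0 with 500 mM NaCl; Tris-HCl pH 7.5 with 500 mM NaCl; 10 mM sodium bicarbonate pH 9.5 with or without 500 mM NaCl.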

human plasma IgG2 = biological target: T5, human plasma IgG2 (Homo sapiens, UniProt P01859); experiment: as above
T5 construct: the individual human plasma IgG isoforms: IgG1, IgG2, IgG3, or IgG4; purchased Calbiochem; host or cells: human plasma
T5 sequence (P01859 1-326 isoform P01859-1): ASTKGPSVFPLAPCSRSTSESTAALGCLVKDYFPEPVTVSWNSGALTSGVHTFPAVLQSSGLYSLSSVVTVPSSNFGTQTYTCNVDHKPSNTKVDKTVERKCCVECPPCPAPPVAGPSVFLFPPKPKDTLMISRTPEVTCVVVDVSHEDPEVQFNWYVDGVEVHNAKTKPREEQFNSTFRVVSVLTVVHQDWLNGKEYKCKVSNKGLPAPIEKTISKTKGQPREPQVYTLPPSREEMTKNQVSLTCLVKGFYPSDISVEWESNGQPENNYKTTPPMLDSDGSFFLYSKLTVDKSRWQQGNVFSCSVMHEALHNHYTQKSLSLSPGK

T3 sequence (P01860 1-377 isoform P01860-1): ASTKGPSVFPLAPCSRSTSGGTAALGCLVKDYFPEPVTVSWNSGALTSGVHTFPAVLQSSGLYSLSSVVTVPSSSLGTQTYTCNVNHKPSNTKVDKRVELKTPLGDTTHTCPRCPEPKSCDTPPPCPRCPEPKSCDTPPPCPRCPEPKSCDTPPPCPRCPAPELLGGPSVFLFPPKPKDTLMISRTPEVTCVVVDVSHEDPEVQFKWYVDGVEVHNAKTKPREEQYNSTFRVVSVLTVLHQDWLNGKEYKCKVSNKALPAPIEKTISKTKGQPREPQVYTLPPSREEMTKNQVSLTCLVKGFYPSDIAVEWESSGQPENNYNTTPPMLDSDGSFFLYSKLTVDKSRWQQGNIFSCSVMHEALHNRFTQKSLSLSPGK
T4 sequence (P01861 1-327 isoform P01861-1): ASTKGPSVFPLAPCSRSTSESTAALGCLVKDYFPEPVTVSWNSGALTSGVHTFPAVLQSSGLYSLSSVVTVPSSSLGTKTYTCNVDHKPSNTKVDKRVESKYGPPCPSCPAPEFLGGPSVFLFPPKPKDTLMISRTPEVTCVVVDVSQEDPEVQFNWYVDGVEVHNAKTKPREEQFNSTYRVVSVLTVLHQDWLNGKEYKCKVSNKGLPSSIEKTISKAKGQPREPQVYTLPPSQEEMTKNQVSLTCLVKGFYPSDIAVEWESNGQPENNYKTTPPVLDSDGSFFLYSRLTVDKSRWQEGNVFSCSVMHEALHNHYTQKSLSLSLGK
Sequence of IgG3 (P01860 1-377 isoform P01860-1): as the sequence (P01860 1-377 isoform P01860-1) above
Sequence of IgG4 (P01861 1-327 isoform P01861-1): as the sequence (P01861 1-327 isoform P01861-1) above
T1 sequence (P01857 1-330 isoform P01857-1): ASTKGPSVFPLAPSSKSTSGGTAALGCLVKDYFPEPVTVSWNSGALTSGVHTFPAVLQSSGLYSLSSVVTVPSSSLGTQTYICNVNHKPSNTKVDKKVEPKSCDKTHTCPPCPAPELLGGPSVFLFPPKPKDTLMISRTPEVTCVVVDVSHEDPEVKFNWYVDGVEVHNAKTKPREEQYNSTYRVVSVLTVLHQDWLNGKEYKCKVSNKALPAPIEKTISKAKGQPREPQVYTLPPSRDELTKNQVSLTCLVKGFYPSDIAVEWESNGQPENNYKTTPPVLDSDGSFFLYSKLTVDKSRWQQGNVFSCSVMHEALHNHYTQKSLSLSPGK
T2 sequence (P01859 1-326 isoform P01859-1): as the sequence (P01859 1-326 isoform P01859-1) above

Q: With CC(=O)N[C@@H](C)C(=O)NCC(=O)N[C@@H](C)C(=O)N[C@@H](C)C(=O)N[C@H](C(=O)N[C@H]1CSSC[C@@H](C(=O)N[C@H](C(=O)N[C@@H](CC(=O)O)C(=O)N[C@@H](CO)C(=O)N2CCC[C@H]2C(=O)NCC(=O)N2CCC[C@H]2C(=O)N[C@@H](CCC(=O)O)C(=O)NCC(=O)NCC(=O)NCC(=O)N[C@@H](CCCCN)C(N)=O)[C@@H](C)O)NC(=O)[C@H](Cc2ccccc2)NC(=O)[C@H](Cc2c[nH]c3ccccc23)NC(=O)[C@H](CCC(N)=O)NC(=O)[C@H](Cc2ccc(O)cc2)NC(=O)[C@H](Cc2ccc(O)cc2)NC(=O)[C@H](Cc2c[nH]c3ccccc23)NC(=O)[C@H](Cc2ccc(O)cc2)NC(=O)[C@H](CO)NC(=O)[C@H]([C@@H](C)O)NC(=O)[C@H](CO)NC1=O)[C@@H](C)O [DX398] as the compound, how does the “% IgG Capture - Batch Binding, Human IgG4” value (IgG4) read?
A: Its value is 2%.

Q: What about the “% IgG Capture - Batch Binding, Human IgG3” value (IgG3) of the same compound?
A: The value was 79%.

Q: What about the “% IgG Capture - Batch Binding, Human IgG1” value (human IgG1) of the same compound?
A: The value was 6%.

Q: What about the “% IgG Capture - Batch Binding, Human IgG2” value (human IgG2) of the same compound?
A: The value was 0%.

Q: What about the “% IgG Capture - Batch Binding, Mouse IgG” value (mouse IgG) of the same compound?
A: Its value is 4%.

Q: And the “% IgG Capture - Batch Binding, Goat IgG” value (goat IgG)?
A: Its value is 0%.

Q: And the “% IgG Capture - Batch Binding, Bovine IgG” value (bovine IgG)?
A: Its value is 2%.

Q: And the “% IgG Capture - Batch Binding, Human IgG” value (human IgG)?
A: Its value is 9%.

Q: And the Kd (human plasma IgG3; 10 nM Tris-HCl, 500 mM Sodium Chloride, pH 7.5, read-out: KD (μM) IgG3 pH 7.5 + salt)?
A: Its Kd is 0.3 ± 0.03 µM.

Q: What about the Kd (human plasma IgG3; 10 mM Sodium Bicarbonate, 500 mM Sodium Chloride, pH 9.5, read-out: KD (μM) IgG3 pH 9.5 + salt) of the same compound?
A: The Kd was 0.3 ± 0.1 µM.

Q: And the Kd (human plasma IgG3; 10 mM Sodium Bicarbonate, pH 9.5, read-out: KD (μM) IgG3 pH 9.5 − salt)?
A: Its Kd is over 10 µM.

Q: And the Kd (human plasma IgG3; 10 mM Sodium Citrate, 500 mM Sodium Chloride, pH 4.0, read-out: KD (μM) IgG3 pH 4.0 + salt)?
A: The Kd was 0.04 to 0.3 µM.

Q: And the Kd (human plasma IgG3; 10 mM Sodium Citrate, pH 4.0, read-out: KD (μM) IgG3 pH 4.0 − salt)?
A: Its Kd is ~0.02 µM and 0.02 µM.

Q: And the Kd (human plasma IgG3; 10 mM Tris-HCl, pH 7.5, read-out: KD (μM) IgG3 pH 7.5 − salt)?
A: Its Kd is over 10 µM.

Q: What about the Kd (human plasma IgG3; TBS, 0.01% Tween 20, pH 7.5, read-out: KD (μM) IgG3 TBS) of the same compound?
A: Its Kd is over 10 µM.

Q: And the Kd (human plasma IgG4; 10 nM Tris-HCl, 500 mM Sodium Chloride, pH 7.5, read-out: KD (μM) IgG4 pH 7.5 + salt)?
A: The Kd was over 10 µM.

Q: And the Kd (human plasma IgG4; 10 mM Sodium Bicarbonate, 500 mM Sodium Chloride, pH 9.5, read-out: KD (μM) IgG4 pH 9.5 + salt)?
A: The Kd was over 10 µM.

Q: What about the Kd (human plasma IgG4; 10 mM Sodium Bicarbonate, pH 9.5, read-out: KD (μM) IgG4 pH 9.5 − salt) of the same compound?
A: The Kd was over 10 µM.

Q: What about the Kd (human plasma IgG4; 10 mM Sodium Citrate, 500 mM Sodium Chloride, pH 4.0, read-out: KD (μM) IgG4 pH 4.0 + salt) of the same compound?
A: Its Kd is over 10 µM.

Q: And the Kd (human plasma IgG4; 10 mM Sodium Citrate, pH 4.0, read-out: KD (μM) IgG4 pH 4.0 − salt)?
A: Its Kd is about 2 µM.

Q: What about the Kd (human plasma IgG4; TBS, 0.01% Tween 20, pH 7.5, read-out: KD (μM) IgG4 TBS) of the same compound?
A: The Kd was over 10 µM.

Q: What about the Kd (human plasma IgG2; 10 nM Tris-HCl, 500 mM Sodium Chloride, pH 7.5, read-out: KD (μM) IgG2 pH 7.5 + salt) of the same compound?
A: The Kd was over 10 µM.

Q: And the Kd (human plasma IgG2; 10 mM Sodium Bicarbonate, 500 mM Sodium Chloride, pH 9.5, read-out: KD (μM) IgG2 pH 9.5 + salt)?
A: Its Kd is over 10 µM.

Q: And the Kd (human plasma IgG2; 10 mM Sodium Bicarbonate, pH 9.5, read-out: KD (μM) IgG2 pH 9.5 − salt)?
A: Its Kd is over 10 µM.

Q: What about the Kd (human plasma IgG2; 10 mM Sodium Citrate, 500 mM Sodium Chloride, pH 4.0, read-out: KD (μM) IgG2 pH 4.0 + salt) of the same compound?
A: The Kd was over 10 µM.

Q: What about the Kd (human plasma IgG2; 10 mM Sodium Citrate, pH 4.0, read-out: KD (μM) IgG2 pH 4.0 − salt) of the same compound?
A: Its Kd is about 2 µM.

Q: What about the Kd (human plasma IgG2; 10 mM Tris-HCl, pH 7.5, read-out: KD (μM) IgG2 pH 7.5 − salt) of the same compound?
A: Its Kd is over 10 µM.

Q: And the Kd (human plasma IgG2; TBS, 0.01% Tween 20, pH 7.5, read-out: KD (μM) IgG2 TBS)?
A: Its Kd is over 10 µM.
